Results on one compound are retold here after patent publication US20180263993A1, “METHOD FOR PREVENTING AND/OR TREATING CHRONIC TRAUMATIC ENCEPHALOPATHY-IV” (Eustralis Pharmaceuticals Limited (trading as Pressura …, priority 2013, published 2018).

The assay has as its system tau phosphorylation. In words: Tau phosphorylation after concussive injury in the rat (phosphorylated tau immunohistology). As to conditions: rat concussion model; 1 mg/kg intravenously at 30 min after induction of injury; assessed 3 days after the concussive event; compared with injured and non-injured animals. The assay is classed as in vivo. From the text:
Note that concussive injury in the rat causes extensive tau phosphorylation (B) by 3 days after the concussive event compared to non-injured animals (A).
Having established that hyperphosphorylated tau accumulates perivascularly following concussive injury, we used an animal model of concussion to investigate whether concussion causes perivascular release of substance P. We developed a rodent model of concussion to replicate the concussive event (Donkin et al., 2004, 7th International Neurotrauma Symposium, pp 75-78, Medimond Publishers, Bologna, Italy) and subsequently determined whether substance P was released after such an event. There was a clear increase in brain perivascular substance P immunoreactivity after the concussive event (FIG. 2).
Having shown that mechanical injury causes release of substance P after concussive injury, we then investigated whether a compound of formula (I) reduces tau hyperphosphorlation after concussive injury. […] Note that concussive injury in the rat causes extensive tau phosphorylation (B) by 3 days after the concussive event compared to non-injured animals (A). […] Thus, administration of a compound of formula (I) prevents tau hyperphosphorylation and thus prevents the development of CTE.

For `Cc1ccccc1-c1cc(N2CCOCC2)ncc1N(C)C(=O)C(C)(C)c1cc(C(F)(F)F)cc(C(F)(F)F)c1` [compound of formula (I), 2-[3,5-bis(trifluoromethyl)phenyl]-N,2-dimethyl-N-[4-(2-methylphenyl)-6-morpholin-4-ylpyridin-3-yl]propanamide], the “effect on tau phosphorylation after concussive injury” value was “almost complete inhibition of tau phosphorylation”.
